The values below come from article PMC13224050, “Synthesis and characterization of a novel phosphatidylinositol 5-phosphate (PI(5)P) photoaffinity probe” (RSC Chemical Biology, 2026).

The target of one assay is T1, hUHRF1 (Homo sapiens, UniProt Q96T88).
T1 construct: gene UHRF1; purified recombinant, bacterially expressed; domains UBL, TTD, PHD, SRA, RING
T1 sequence (Q96T88 1-793): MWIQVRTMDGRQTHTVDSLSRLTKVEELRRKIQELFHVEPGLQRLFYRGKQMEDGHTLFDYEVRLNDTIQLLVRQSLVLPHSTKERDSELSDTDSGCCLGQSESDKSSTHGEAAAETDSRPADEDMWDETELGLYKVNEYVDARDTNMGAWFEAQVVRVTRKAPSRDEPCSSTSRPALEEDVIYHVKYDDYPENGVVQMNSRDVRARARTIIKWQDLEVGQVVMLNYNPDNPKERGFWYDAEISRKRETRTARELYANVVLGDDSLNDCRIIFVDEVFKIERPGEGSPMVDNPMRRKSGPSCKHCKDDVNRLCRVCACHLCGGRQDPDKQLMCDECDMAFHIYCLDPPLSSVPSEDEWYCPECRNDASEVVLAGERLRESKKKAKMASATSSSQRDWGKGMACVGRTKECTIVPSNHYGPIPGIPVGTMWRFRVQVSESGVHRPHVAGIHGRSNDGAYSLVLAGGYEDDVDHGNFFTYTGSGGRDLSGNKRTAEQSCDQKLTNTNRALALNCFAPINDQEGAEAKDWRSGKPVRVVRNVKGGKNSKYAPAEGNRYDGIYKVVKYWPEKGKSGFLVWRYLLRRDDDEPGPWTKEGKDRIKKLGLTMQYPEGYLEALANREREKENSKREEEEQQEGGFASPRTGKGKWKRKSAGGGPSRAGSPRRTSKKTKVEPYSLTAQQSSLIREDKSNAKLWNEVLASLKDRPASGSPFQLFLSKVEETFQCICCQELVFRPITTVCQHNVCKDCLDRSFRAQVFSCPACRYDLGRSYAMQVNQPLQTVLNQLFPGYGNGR
In words: microscale thermophoresis. In kind it is binding. In general terms: In MST a laser heats a spot of the sample, and binding alters the fluorescence response.

The target of another assay is T2, hTAF3 (Homo sapiens, UniProt Q5VWG9).
T2 construct: gene TAF3; purified recombinant, bacterially expressed; abstract prints TAF1 instead
T2 sequence (Q5VWG9 1-929): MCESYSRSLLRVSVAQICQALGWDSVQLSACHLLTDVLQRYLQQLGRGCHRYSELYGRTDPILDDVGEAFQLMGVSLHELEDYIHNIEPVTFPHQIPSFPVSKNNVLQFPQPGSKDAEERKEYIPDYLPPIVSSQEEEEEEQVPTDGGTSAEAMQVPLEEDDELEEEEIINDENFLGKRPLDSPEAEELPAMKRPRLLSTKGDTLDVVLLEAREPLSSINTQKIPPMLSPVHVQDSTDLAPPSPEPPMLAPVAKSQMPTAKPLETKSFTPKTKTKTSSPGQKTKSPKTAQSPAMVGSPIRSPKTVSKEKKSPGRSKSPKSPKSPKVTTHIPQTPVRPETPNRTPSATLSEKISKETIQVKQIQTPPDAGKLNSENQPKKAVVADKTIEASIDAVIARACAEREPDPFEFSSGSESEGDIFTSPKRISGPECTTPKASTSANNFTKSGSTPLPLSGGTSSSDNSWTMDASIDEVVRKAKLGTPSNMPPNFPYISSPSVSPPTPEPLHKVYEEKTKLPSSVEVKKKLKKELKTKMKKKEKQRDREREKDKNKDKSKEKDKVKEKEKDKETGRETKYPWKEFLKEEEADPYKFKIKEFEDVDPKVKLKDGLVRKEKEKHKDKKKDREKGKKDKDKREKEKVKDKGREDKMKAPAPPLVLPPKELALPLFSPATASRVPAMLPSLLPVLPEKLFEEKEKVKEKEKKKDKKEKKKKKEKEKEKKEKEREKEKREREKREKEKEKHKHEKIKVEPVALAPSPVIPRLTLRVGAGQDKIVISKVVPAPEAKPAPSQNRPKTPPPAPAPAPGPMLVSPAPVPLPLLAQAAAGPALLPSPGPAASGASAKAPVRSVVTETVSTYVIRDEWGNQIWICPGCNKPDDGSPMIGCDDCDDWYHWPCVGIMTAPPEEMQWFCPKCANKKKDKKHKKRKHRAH
As to the kind of experiment: photo-crosslinking with TAMRA click SDS-PAGE. The class given is binding. As to conditions: covalent; 365 nm 30 min.

The term Kd denotes the constant that tells how readily two partners part at equilibrium. A lower Kd goes with a tighter complex. As to `CCCCCCCCCCCCCCCC(=O)OC[C@H](COP(=O)(O)O[C@H]1[C@H](O)[C@@H](OP(=O)(O)O)[C@H](O)[C@@H](O)[C@H]1O)OC(=O)CCCCCCCCCCCCCCC` [compound 1, di-C16 : 0 PI(5)P], the Kd at hUHRF1 is ~8.6 µM.
Consider `C#CCCCCCCCCCCC1(CCC(=O)O[C@H](COC(=O)CCCCCCCCCCCCCCC)COP(=O)(O)O[C@H]2[C@H](O)[C@@H](OP(=O)(O)O)[C@H](O)[C@@H](O)[C@H]2O)N=N1` [compound 9, PI(5)P diazirine probe], for which, on hTAF3, the “photo-crosslinking with TAMRA click SDS-PAGE” value was “confirming that the diazirine probe bound to bacterially expressed recombinant hUHRF1 and hTAF3”.
